The source of these data is patent US8921405B2, “Compounds” (Orexo AB, priority 2009, dated 2014).

The target in the assay is T1, recombinant human mPGES-1 (Homo sapiens, UniProt O14684).
T1 construct: made in house; host or cells: Rosetta E. coli (membrane/microsome fraction)
T1 sequence (O14684 1-152): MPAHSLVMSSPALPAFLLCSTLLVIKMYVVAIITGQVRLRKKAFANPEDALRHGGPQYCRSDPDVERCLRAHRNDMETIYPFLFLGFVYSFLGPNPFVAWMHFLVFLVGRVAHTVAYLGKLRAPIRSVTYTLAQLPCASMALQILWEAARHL
Briefly: mPGES-1 HTRF assay (inhibition of PGE2 formation from PGH2). The assay is classed as biochemical. To be noted: HTRF assay; for inhibition at 10 µM: compound concentration of 10 μM, read-out: % inhibition. The method in brief:
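Microsomes of E. coli expressing human mPGES-1, in 0.1 M KPi pH 7.4 with 2.5 mM GSH, preincubated 25 min at room temperature with inhibitor, then given PGH2 for 1 min before FeCl2 acidic stop. PGE2 quantified by HTRF (665/620 nm ratio) against synthetic PGE2 standard curve; percent inhibition versus controls.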
Background: TR-FRET usually uses a lanthanide donor and a delayed reading to cut background.

pIC50: −log10 of the molar value. A value given as a limit tells only on which side of the number the result lay.

Consider `Cn1c(Nc2cc(CNC(=O)C3(C(F)(F)F)CC3)c(F)cc2Cl)nc2cc(C(=O)Nc3ccc(Br)cc3)c(OCC(F)F)cc21` [Example 85, N-(4-Bromophenyl)-2-(2-chloro-4-fluoro-5-{[(1-trifluoromethyl-cyclopropanecarbonyl)amino]methyl}phenylamino)-6-(2,2-difluoroethoxy)-1-methyl-1H-benzo[d]imidazole-5-carboxamide], for which the pIC50 is 8.70.

Take `CC(C(=O)NCc1ccc(Cl)c(Nc2nc3cc(C(=O)Nc4ccc(Br)cc4)c(OCC(F)F)cc3n2C)c1)C(F)(F)F` (centres unmarked) [Example 73, N-(4-Bromo-phenyl)-2-(2-chloro-5-{[(1-trifluoromethyl-ethyl-carbonyl)-amino]-methyl}-phenylamino)-6-(2,2-difluoro-ethoxy)-1-methyl-1H-benzimidazole-5-carboxylic acid amide]: the pIC50 is 8.52.

For the compound `Cn1c(Nc2cc(CNC(=O)C3(C(F)(F)F)CC3)ccc2Cl)nc2cc(C(=O)NCCCC(F)(F)F)ccc21` [Example 53, 2-{2-Chloro-5-[(1-trifluoromethylcyclopropylamido)methyl]phenylamino}-1-methyl-N-(4,4,4-trifluorobutyl)benzimidazole-5-carboxamide], the inhibition at 10 µM stood at 100%.

Turning to `Cn1c(Nc2cc(CNC(=O)C3(C)COC3)ccc2Cl)nc2cc(C(=O)Nc3ccc(Br)cc3)ccc21` [Example 40, N-(4-Bromophenyl)-2-{2-chloro-5-[(3-methyl-3-oxetanylamido)methyl]-phenylamino}-1-methylbenzimidazole-5-carboxamide], the inhibition at 10 µM came out at 98%.

Take `Cn1c(Nc2cc(CNC(=O)C3(C(F)(F)F)CC3)ccc2Cl)nc2cc(C(=O)NCC3CCCCC3)ccc21` [Example 30, 2-{2-chloro-5-[(1-trifluoromethylcyclopropylamido)methyl]phenyl-amino}-N-cyclohexylmethyl-1-methylbenzimidazole-5-carboxamide]: the inhibition at 10 µM was found to be 98%.

`Cn1c(Nc2cc(CNC(=O)C3(C)CCCCC3)ccc2Cl)nc2cc(C(=O)Nc3ccc(Br)cc3)ccc21` [Example 21, N-(4-Bromophenyl)-2-{2-chloro-5-[(1-methylcyclohexylamido)methyl]-phenylamino}-1-methylbenzimidazole-5-carboxamide]: the inhibition at 10 µM stood at 100%.

For `Cn1c(Nc2cc(CNC(=O)C3(C#N)CCCC3)ccc2Cl)nc2cc(C(=O)Nc3ccc(Br)cc3)ccc21` [Example 42, N-(4-Bromophenyl)-2-{2-chloro-5-[(1-cyanocyclopentylamido)methyl]-phenylamino}-1-methylbenzimidazole-5-carboxamide], the inhibition at 10 µM stood at 100%.

For the compound `CC(=O)NCc1ccc(Cl)c(Nc2nc3cc(C(=O)Nc4ccc(Br)cc4)ccc3n2C)c1` [Example 43, 2-[5-(Acetamidomethyl)-2-chlorophenylamino]-N-(4-bromophenyl)-1-methylbenzimidazole-5-carboxamide], the inhibition at 10 µM stood at 100%.

As for `CC1(C(=O)NCc2ccc(Cl)c(Nc3nc4cc(C(=O)NC5CCCC5)c(Cl)cc4n3C3CCCC3)c2)CCCCC1` [Example 23, 6-Chloro-2-{2-chloro-5-[(1-methylcyclohexylamido)methyl]phenylamino}-N,1-dicyclopentylbenzimidazole-5-carboxamide], the inhibition at 10 µM stood at 100%.

As for `Cn1c(Nc2cc(CNC(=O)C(C)(C)C)ccc2Cl)nc2cc(C(=O)N[C@H]3CC[C@H](C(F)(F)F)CC3)c(OCCF)cc21` [Example 97, N-(trans-4-Trifluoromethyl-cyclohex-1-yl)-1-methyl-2-(2-chloro-5-{[(tert-butylcarbonyl)-amino]-methyl}-phenylamino)-6-(2-fluoro-ethoxy)-1H-benzimidazole-5-carboxylic acid amide], the negative logarithm of the IC50 (pIC50) is 8.30.

On to `O=C(Nc1ccc(Br)cc1)c1cc2nc(Nc3cc(CNC(=O)C4(C(F)(F)F)CC4)ccc3Cl)[nH]c2cc1OCC(F)F` [Example 67, N-(4-Bromo-phenyl)-2-(2-chloro-5-{[(1-trifluoromethyl-cyclopropanecarbonyl)-amino]-methyl}-phenylamino)-6-(2,2-difluoro-ethoxy)-1H-benzimidazole-5-carboxylic acid amide], for which the pIC50 was 8.70.

As to `Cn1c(Nc2cc(CNC(=O)C3(C)CCCCC3)ccc2Cl)nc2cc(Cl)c(NC(=O)OC(C)(C)C)cc21` [Example 5, tert-Butyl 5-chloro-2-{2-chloro-5-[(1-methylcyclohexylamido)methyl]phenylamino}-1-methyl-6-benzimidazolylcarbamate], the inhibition at 10 µM stood at 100%.

As for `CN1CCCC1CCNC(=O)c1ccc2c(c1)nc(Nc1cc(CNC(=O)C3(C(F)(F)F)CC3)ccc1Cl)n2C` (centres unmarked) [Example 55, 2-{2-chloro-5-[(1-trifluoromethylcyclopropylamido)methyl]phenylamino}-1-methyl-N-[2-(1-methyl-2-pyrrolidinyl)ethyl]benzimidazole-5-carboxamide], the inhibition at 10 µM came to 68%.

With `COc1ccc(CNC(=O)C(C)(C)C)cc1Nc1nc2cc(C(=O)N[C@H]3CC[C@H](C(F)(F)F)CC3)c(Cl)cc2[nH]1` [Example 99, N-(trans-4-Trifluoromethyl-cyclohex-1-yl)-2-(2-methoxy-5-{[(tert-butylcarbonyl)-amino]-methyl}-phenylamino)-6-chloro-1H-benzimidazole-5-carboxylic acid amide], the pIC50 is under 7.00.

On to `Cn1c(Nc2cc(CNC(=O)C3(C)CCCC3)ccc2Cl)nc2cc(C(=O)NCC3CCCCC3)ccc21` [Example 31, 2-{2-Chloro-5-[(1-methylcyclopentylamido)methyl]phenylamino}-N-cyclohexylmethyl-1-methylbenzimidazole-5-carboxamide], for which the inhibition at 10 µM amounted to 99%.

In the case of `Cn1c(Nc2cc(CNC(=O)C3(C)CCCCC3)ccc2Cl)nc2cc(C(=O)NC3CCCC3)c(Cl)cc21` [Example 3, 6-Chloro-2-{2-chloro-5-[(1-methylcyclohexylamido)methyl]phenylamino}-N-cyclopentyl-1-methylbenzimidazole-5-carboxamide], the inhibition at 10 µM turned out to be 100%.

With `Cn1c(Nc2cc(CNC(=O)C3(C(F)(F)F)CC3)ccc2Cl)nc2cc(C(=O)NCC3CC3)ccc21` [Example 11, 2-{2-chloro-5-[(1-trifluoromethylcyclopropylamido)methyl]phenylamino}-N-cyclopropylmethyl-1-methylbenzimidazole-5-carboxamide], the inhibition at 10 µM came out at 100%.

In the case of `Cn1c(Nc2cc(CNS(=O)(=O)c3cccs3)ccc2Cl)nc2cc(C(=O)Nc3ccc(Br)cc3)ccc21` [Example 44, N-(4-Bromophenyl)-2-{2-chloro-5-[(2-thienylsulfonamido)methyl]phenylamino}-1-methylbenzimidazole-5-carboxamide], the inhibition at 10 µM was determined as 100%.

For `Cn1c(Nc2cc(CNC(=O)C(C)(C)C)ccc2Cl)nc2cc(C(=O)NCC#Cc3ccccc3)c(OCC(F)F)cc21` [Example 90, N-(3-Phenylpropargyl)-2-(2-chloro-5-{[(tert-butylcarbonyl)-amino]-methyl}-phenylamino)-6-(2,2-difluoro-ethoxy)-1-methyl-1H-benzimidazole-5-carboxylic acid amide], the pIC50 was 9.00.

Regarding `CSC1(C(=O)NCc2ccc(Cl)c(Nc3nc4cc(C(=O)Nc5ccc(Br)cc5)ccc4n3C)c2)CCCC1` [Example 47, N-(4-Bromophenyl)-2-{2-chloro-5-[(1-methylthiocyclopentylamido)-methyl]phenylamino}-1-methylbenzimidazole-5-carboxamide], the inhibition at 10 µM turned out to be 100%.

With `COc1cc2c(cc1C(=O)NCC1CC1)nc(Nc1cc(CNC(=O)C3(C(F)(F)F)CC3)ccc1Cl)n2C` [Example 64, N-(Cyclopropylmethyl)-2-(2-chloro-5-{[(1-trifluoromethyl-cyclopropanecarbonyl)-amino]-methyl}-phenylamino)-6-methoxy-1-methyl-1H-benzimidazole-5-carboxylic acid amide], the pIC50 was 8.70.

As to `CN(C1CCCC1)S(=O)(=O)c1ccc2c(c1)nc(Nc1cc(CNC(=O)C3(C)CCCCC3)ccc1Cl)n2C` [Example 26, N-{4-Chloro-3-[5-(N-cyclopentyl-N-methylsulfamoyl)-1-methyl-2-benzimidazolylamino]benzyl}-1-methylcyclohexylamide], the inhibition at 10 µM amounted to 100%.

For `Cn1c(Nc2cc(CNC(=O)C3(CN)CC3)ccc2Cl)nc2cc(C(=O)Nc3ccc(Br)cc3)ccc21` [Example 50, 2-(5-{[1-(Aminomethyl)cyclopropylamido]methyl}-2-chlorophenylamino)-N-(4-bromophenyl)-1-methylbenzimidazole-5-carboxamide], the inhibition at 10 µM is 100%.

Turning to `O=C(NCC1CC1)c1cc2nc(Nc3cc(CNC(=O)C4(C(F)(F)F)CC4)ccc3Cl)[nH]c2cc1OCC(F)F` [Example 68, N-(Cyclopropylmethyl)-2-(2-chloro-5-[{(l-trifluoromethyl-cyclopropanecarbonyl)-amino]-methyl}-phenylamino)-6-(2,2-difluoro-ethoxy)-1H-benzimidazole-5-carboxylic acid amide], the pIC50 is 8.52.

As to `Cn1c(Nc2cc(CNC(=O)C3(CC4CC4)CCCC3)ccc2Cl)nc2cc(C(=O)Nc3ccc(Br)cc3)ccc21` [Example 48, N-(4-Bromophenyl)-2-{2-chloro-5-[(1-cyclopropylmethylcyclopentyl-amido)methyl]phenylamino}-1-methylbenzimidazole-5-carboxamide], the inhibition at 10 µM amounted to 100%.

Consider `Cn1c(Nc2cc(CNC(=O)C3(C)CCCCC3)ccc2Cl)nc2cc(C(=O)NCC3CCCCC3)ccc21` [Example 16, 2-{2-Chloro-5-[(1-methylcyclohexylamido)methyl]phenylamino}-N-cyclohexylmethyl-1-methylbenzimidazole-5-carboxamide], for which the inhibition at 10 µM was found to be 80%.

The term pIC50 denotes the negative decadic logarithm of the IC50, by convention in mol/L. For orientation: inhibition means how much of the control response was suppressed.
